Values of other authors, collected in US7332183B2, “Multilayer dosage forms containing NSAIDs and triptans” (Pozen Inc., priority 2002, dated 2008).

Details: in vivo

Row | half life | Structure (SMILES)
1 | about 7 hours | CCc1cccc2c3c([nH]c12)C(CC)(CC(=O)O)OCC3 (stereo not shown) [etodolac]
2 | about 17 hours | CS(=O)(=O)c1ccc(C2=C(c3ccccc3)C(=O)OC2)cc1 [rofecoxib]
3 | about 4 hours | Cc1cccc(Nc2ccccc2C(=O)O)c1C [mefanamic acid]
4 | about 6 hours | CC(C(=O)O)c1ccc(-c2ccccc2)c(F)c1 (stereo not shown) [flurbiprofen]
